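Cultured in 96-well plates, cells were exposed to test compound for 48 hours across five concentrations. The concentration for 50% growth inhibition is given as GI50. At the TGI there is no net growth.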
Columns and labels:
Assay in all cases: DTP human tumour cell line panel, 48 h
CAKI-1 renal = test system: CAKI-1 renal
CCRF-CEM leukemia = test system: CCRF-CEM leukemia
DU-145 prostate = test system: DU-145 prostate
HCT-116 colon = test system: HCT-116 colon
HOP-62 NSCLC = test system: HOP-62 NSCLC
HOP-92 NSCLC = test system: HOP-92 NSCLC
MCF7 breast = test system: MCF7 breast
MDA-MB-231 breast = test system: MDA-MB-231 breast
MOLT-4 leukemia = test system: MOLT-4 leukemia
NCI/ADR-RES ovarian = test system: NCI/ADR-RES ovarian
OVCAR-8 ovarian = test system: OVCAR-8 ovarian
PC-3 prostate = test system: PC-3 prostate
RPMI-8226 leukemia = test system: RPMI-8226 leukemia
SF-539 CNS = test system: SF-539 CNS
SN12C renal = test system: SN12C renal
SR leukemia = test system: SR leukemia
T-47D breast = test system: T-47D breast
786-0 renal = test system: 786-0 renal
HCC-2998 colon = test system: HCC-2998 colon
HL-60(TB) leukemia = test system: HL-60(TB) leukemia
HT29 colon = test system: HT29 colon
K-562 leukemia = test system: K-562 leukemia
KM12 colon = test system: KM12 colon
LOX IMVI melanoma = test system: LOX IMVI melanoma
NCI-H460 lung = test system: NCI-H460 lung
OVCAR-3 ovarian = test system: OVCAR-3 ovarian
OVCAR-4 ovarian = test system: OVCAR-4 ovarian
RXF 393 renal = test system: RXF 393 renal
SF-268 CNS = test system: SF-268 CNS
SK-MEL-5 melanoma = test system: SK-MEL-5 melanoma
SK-OV-3 ovarian = test system: SK-OV-3 ovarian
SW-620 colon = test system: SW-620 colon
U251 CNS = test system: U251 CNS
UACC-62 melanoma = test system: UACC-62 melanoma
UO-31 renal = test system: UO-31 renal

`COc1cc(/C=C2\CCCC3=C2N=C2SC(C)=CN2C3c2cc(OC)c(OC)c(OC)c2)cc(OC)c1OC` (stereo unspecified) gave a GI50 (CAKI-1 renal) of 2550 nM, a TGI (CAKI-1 renal) of over 100000 nM and a GI50 (CCRF-CEM leukemia) of 615 nM. For the same compound, the TGI (CCRF-CEM leukemia) was 4140 nM, the GI50 (DU-145 prostate) was 2760 nM and the TGI (DU-145 prostate) was over 100000 nM. The GI50 (HCT-116 colon) was 692 nM, the TGI (HCT-116 colon) was 2010 nM and the GI50 (HOP-62 NSCLC) was 1890 nM. For the same compound, the TGI (HOP-62 NSCLC) was over 100000 nM, the GI50 (HOP-92 NSCLC) was 1460 nM and the TGI (HOP-92 NSCLC) was 4270 nM. It also gave a GI50 (MCF7 breast) of 2980 nM, a TGI (MCF7 breast) of over 100000 nM and a GI50 (MDA-MB-231 breast) of 2880 nM. It also gave a TGI (MDA-MB-231 breast) of over 100000 nM, a GI50 (MOLT-4 leukemia) of 1770 nM and a TGI (MOLT-4 leukemia) of 6430 nM. It also gave a GI50 (NCI/ADR-RES ovarian) of 334 nM, a TGI (NCI/ADR-RES ovarian) of over 100000 nM and a GI50 (OVCAR-8 ovarian) of 385 nM. It also gave a TGI (OVCAR-8 ovarian) of 3090 nM, a GI50 (PC-3 prostate) of 2190 nM and a TGI (PC-3 prostate) of over 100000 nM. It also gave a GI50 (RPMI-8226 leukemia) of 391 nM, a TGI (RPMI-8226 leukemia) of 2110 nM and a GI50 (SF-539 CNS) of 3090 nM. The TGI (SF-539 CNS) was over 100000 nM, the GI50 (SN12C renal) was 2440 nM and the TGI (SN12C renal) was over 100000 nM. The GI50 (SR leukemia) was 399 nM, the TGI (SR leukemia) was 2010 nM and the GI50 (T-47D breast) was 3160 nM. It also gave a TGI (T-47D breast) of over 100000 nM.

`Cc1nc2ccccc2c(/C=C/c2ccccc2)c1C(=O)/C=C/c1ccc(Cl)cc1` was tested, and the GI50 (786-0 renal) was 1580 nM, the TGI (786-0 renal) was 2990 nM and the GI50 (CCRF-CEM leukemia) was 481 nM. It also gave a TGI (CCRF-CEM leukemia) of 5240 nM, a GI50 (HCC-2998 colon) of 1810 nM and a TGI (HCC-2998 colon) of 3350 nM. The GI50 (HCT-116 colon) was 485 nM, the TGI (HCT-116 colon) was 1810 nM and the GI50 (HL-60(TB) leukemia) was 871 nM. The TGI (HL-60(TB) leukemia) was 3120 nM, the GI50 (HT29 colon) was 900 nM and the TGI (HT29 colon) was 6360 nM. The GI50 (K-562 leukemia) was 868 nM, the TGI (K-562 leukemia) was 4870 nM and the GI50 (KM12 colon) was 1860 nM. For the same compound, the TGI (KM12 colon) was 4780 nM, the GI50 (LOX IMVI melanoma) was 1230 nM and the TGI (LOX IMVI melanoma) was 2490 nM. The GI50 (MDA-MB-231 breast) was 1460 nM, the TGI (MDA-MB-231 breast) was 4000 nM and the GI50 (MOLT-4 leukemia) was 1090 nM. For the same compound, the TGI (MOLT-4 leukemia) was 6490 nM, the GI50 (NCI-H460 lung) was 1510 nM and the TGI (NCI-H460 lung) was 3290 nM. The GI50 (NCI/ADR-RES ovarian) was 1810 nM, the TGI (NCI/ADR-RES ovarian) was 4880 nM and the GI50 (OVCAR-3 ovarian) was 1480 nM. The TGI (OVCAR-3 ovarian) was 2910 nM, the GI50 (OVCAR-4 ovarian) was 2360 nM and the TGI (OVCAR-4 ovarian) was over 100000 nM. The GI50 (RPMI-8226 leukemia) was 784 nM, the TGI (RPMI-8226 leukemia) was 3580 nM and the GI50 (RXF 393 renal) was 1280 nM. The TGI (RXF 393 renal) was 2640 nM, the GI50 (SF-268 CNS) was 3150 nM and the TGI (SF-268 CNS) was over 100000 nM. It also gave a GI50 (SK-MEL-5 melanoma) of 1620 nM, a TGI (SK-MEL-5 melanoma) of 3040 nM and a GI50 (SK-OV-3 ovarian) of over 100000 nM. For the same compound, the TGI (SK-OV-3 ovarian) was over 100000 nM, the GI50 (SN12C renal) was 1710 nM and the TGI (SN12C renal) was 4390 nM. For the same compound, the GI50 (SR leukemia) was 540 nM, the TGI (SR leukemia) was 3750 nM and the GI50 (SW-620 colon) was 1710 nM. For the same compound, the TGI (SW-620 colon) was 5720 nM, the GI50 (U251 CNS) was 1510 nM and the TGI (U251 CNS) was 2880 nM. The GI50 (UACC-62 melanoma) was 1500 nM, the TGI (UACC-62 melanoma) was 3250 nM and the GI50 (UO-31 renal) was 1280 nM. For the same compound, the TGI (UO-31 renal) was 2550 nM.
